# Assays:
# [1] = Apparent pKa of LNPs comprising the ionizable lipid (Table 6); conditions: standard formulation 50:10:38.5:1.5
# Female BALB/c mice = assay: Firefly luciferase expression (total flux, IVIS imaging) in mice after injection of mRNA-loaded LNPs; type: in vivo; conditions: mice; for Total Flux: Table 8, intramuscular, 5 µg luciferase mRNA in 50 µl, LNP 50:10:38.5:1.5
# Method: For in vivo administration, mRNA comprising in the 5' to 3' direction a sequence encoding for luciferase of SEQ ID NO:1, was encapsulated into LNPs following the procedure described in Hassett, K. J. et al., "Optimization of Lipid Nanoparticles for Intramuscular Administration of mRNA Vaccines", 2019, Mol. Ther. Nucleic Acid, vol. 15, pp. 1-11. Briefly, the purified mRNAs were first diluted in sodium citrate buffer at pH=4 at a final concentration of 266 µg/ml. Separately, a mixture of the ionizable lipid of the invention:DSPC (Merk 850365P):cholesterol (Sigma C3045):DMG-PEG2000 (Cayman 33945-1) were dissolved into ethanol at the respective molar percentages of 50:10:38.5:1.5, and with a lipid-nitrogen-to-phosphate ratio (N:P) ratio of 5,5:1.
# The mRNA aqueous solution was then carefully added to the ethanol solution, and the resulted solution was homogenized by pipetting up and down for 4-5 times. The resulting LNPs were immediately diluted 1:1 with Tris buffer and dialyzed overnight against Tris buffer containing 15% sucrose. The resulting LNP solution was then collected, and the encapsulated mRNA was assessed by Quant-IT® Ribogreen (Invitrogen R11490) following the manufacturer's instructions.
# Female BALB/c mice (Charles River Laboratories), 8-10-week-old, weighting 18-23 g, were acclimatized to new conditions upon arrival to experimental facilities for 3-7 days. Housing conditions were room temperature 20-24 °C, humidity 50-70 %, and light intensity 60 lux with a light-dark cycle of 12 hours.
# For Firefly Luciferase activity measurement in mice, LNPs produced as indicated above (ionizable lipid:helper lipid: sterol:PEG-modified lipid → 50:10:38.5:1.5) and containing 5 µg of the indicated mRNA in 50 µl final volume, were injected intramuscularly.
# From 4 to 72 hours after RNA-LPN inoculation mice were anaesthetized by inhalation with 4% of isoflurane using a vaporizer. The maintenance of the anaesthesia was performed at 1.5% of isoflurane. Then, D-luciferin (Quimigen, 12507) was injected intraperitoneally at 150 mg/kg, normally ~200 µL of the stock at 15 mg/mL in PBS for a 20 g mouse. Luciferase images were acquired 10 minutes after luciferin inoculation using the IVIS Lumina XRMS Imaging System following manufacturer's instructions.
# [2] = RNA encapsulation efficiency of LNPs by Quant-IT Ribogreen; type: physicochemical; conditions: for Encaps. efficiency (%): LNPs with luciferase mRNA, ionizable lipid:non-cationic lipid:sterol:PEG-modified lipid 50:10:38.5:1.5, percentage of RNA entrapped in the LNP; for Encaps. efficiency: Table 8, LNP 50:10:38.5:1.5, luciferase mRNA
# In short: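 Ribogreen dye assay per manufacturer quantified encapsulated mRNA. Particles were made by adding mRNA in water to the ethanol phase, then 1:1 Tris dilution and overnight dialysis into Tris/15% sucrose; final mRNA set to 100 µg/ml.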
# [3] = Size distribution, polydispersity and Z-potential of LNPs by dynamic light scattering (Malvern Zetasizer); type: physicochemical
# Method: The LNP solution was then adjusted to a final concentration of mRNA of 100 µg/ml. Size distribution, polydispersity and Z-potential were measured by dynamic light scattering (DLS) using Malvern Zetasizer Advance Lab Blue Label. RNA encapsulation was assessed by Quant-IT® Ribogreen following the manufacturer's instructions.
# [4] = LNPs, standard formulation 50:10:38.5:1.5, DLS
# [5] = Table 10, VC-LC-0431:DOPE:Cholesterol:DMG-PEG2000 50:10:38.5:1.5
SMILES,Apparent pKa [1],Total Flux (Female BALB/c mice) [p·s^-1],Encaps. efficiency (%) [2] [%],Encaps. efficiency [2] [%],"P.D.I. [3, 4]","Particle size/ Ø (nm) [3, 4] [nm]","Z Potential (± D.E.) [mV] [3, 4] [mV]",Total flux (p·s^-1) (Female BALB/c mice; [5]),"Encapsulation efficiency (%) [2, 5] [%]","P.D.I. [3, 5]","Particle size/ Ø (nm) [3, 5]","Z Potential (± D.E.) [mV] [3, 5] [mV]"
CCCCCCCCC(CCCCCCCC)OC(=O)C(CSCCC(=O)OCCCCCCCC(C)C)CC(=O)NCCCn1ccnc1 (centres unmarked) [VC-LC-0296],5.62,4.7E+07,48.51,48.5,0.13,175.8,-7.19,–,–,–,–,–
CCCCCCCCC(CCCCCCCC)OC(=O)C(CSCCC(=O)OCC(CC)CCCC)CC(=O)NCCCn1ccnc1 (centres unmarked) [VC-LC-0297],5.80,2.3E+07,46.94,46.9,0.18,193.3,-11.77,–,–,–,–,–
CCCCCCCCCCCCOC(=O)CCSCC(CC(=O)NCCCn1ccnc1)C(=O)OC(CCCCCCCC)CCCCCCCC (centres unmarked) [VC-LC-0298],6.06,7.6E+07,59.92,59.92,0.16,190.5,-13.51,–,–,–,–,–
CCCCCCCCOC(=O)CCSCC(CC(=O)NCCCn1ccnc1)C(=O)OC(CCCCCCCC)CCCCCCCC (centres unmarked) [VC-LC-0307],6.11,1.47E+08,43.89,43.9,0.14,178,-15.15,–,–,–,–,–
CCCCCCCCC(CCCCCC)COC(=O)CCSCCC(NC(=O)C(CCCCCC)CCCCCCCC)C(=O)NC1CCN(C)CC1 (centres unmarked) [VC-LC-0431],5.77,9.92E+07,60.4,60.4,0.11,196.6,-0.28,9.92E+07,60.4,0.114,"196,6 nm",-0.281
CCCCCCCCCCCCOC(=O)CCSCCC(C(=O)NC1CCN(C)CC1)C(=O)OC(CCCCCCCC)CCCCCCCC (centres unmarked) [VC-LC-0440],6.75,2.42E+07,76.52,76.5,0.10,167.4,-3.61,–,–,–,–,–
CCCCCCCCCCCCCOC(=O)CCSCCC(C(=O)NC1CCN(C)CC1)C(=O)OC(CCCCCCCC)CCCCCCCC (centres unmarked) [VC-LC-0441],–,2.2E+07,78.30,78.3,0.12,186.5,-4.04,–,–,–,–,–
CCCCCCCC#CCOC(=O)CCSCCC(C(=O)NC1CCN(C)CC1)C(=O)OC(CCCCCCCC)CCCCCCCC (centres unmarked) [VC-LC-0442],–,2.95E+07,87.80,87.8,0.12,171.8,-4.19,–,–,–,–,–
CCCCCCCCCCCCC(CCCCCCCCCC)COC(=O)CCSCCC(NC(=O)C(CCCCCC)CCCCCCCC)C(=O)NCCN(CC)CC (centres unmarked) [VC-LC-0487],–,6.9E+07,62.43,62.43,0.17,156.3,-9.59,–,–,–,–,–
CCCCCCCCCCCCCOC(=O)CCSCCC(NC(=O)C(CCCCCC)CCCCCCCC)C(=O)NCC1CCN(C)CC1 (centres unmarked) [VC-LC-0490],–,1.7E+07,97.16,97.2,0.18,136.1,0.83,–,–,–,–,–
